One experiment addresses Axl (Homo sapiens (Human), UniProt P30530). As to the kind of experiment: Kinase panel Z'-LYTE/Adapta SelectScreen and IC50 determination. In kind it is biochemical. The conditions noted are these: for Percentage inhibition AXL: 100 nM in 1% DMSO; for IC50: 10 concentrations between 100 nM and 0.00495 nM. On the procedure:
FIG. 2: […] The compounds are screened in DMSO at 1% final. The kinases were diluted in a concentrated concentration twice in kinase buffer. All the ATP solutions were diluted in a 4-fold concentrated working concentration (50 mM HEPES pH 7.5, 0.01% BRIJ-35, 10 mM MgCl2, 1 mM EGTA). […] The inhibitory activity of the compounds on a panel of kinases including, inter alia, AXL and FLT3 was evaluated by Thermo Fisher Scientific using Z′-LYTE® and Adapta® Select Screen technology. The fluorescence-based biochemical test uses coupled enzymes and is based on the difference in sensitivity of the phosphorylated and non-phosphorylated peptides to proteolytic cleavage. The peptide substrate is labeled with 2 fluorophores—one at each end—allowing fluorescence transfer (FRET). […] The Axl or FLT3 kinases were diluted at a two-fold concentration in kinase buffer. All the ATP solutions are diluted in a 4-fold working concentration (50 mM HEPES PH 7.5, 0.01% BRIJ-35, 10 mM MgCl2, 1 mM EGTA).

The test system of a further experiment is WNV virus, Kunjin strain. As to the kind of experiment: Antiviral activity against the WNV virus, Kunjin strain in HeLa cells. The conditions noted are these: summary table. The format is cell-based.
Another experiment concerns SARS-COV-2. In words: Anti-SARS-COV-2 activity in primary human bronchial epithelium model (MucilAir). The conditions noted are these: 1.25 μM, 24 hours, qRT-PCR. The format is cell-based. (Real-time PCR tracks product formation cycle by cycle.)

From US20240293400A1, “NOVEL AZAINDOLE DERIVATIVES AS ANTIVIRAL AGENTS” (Centre National de la Recherche Scientifique, priority 2021, published 2024) come the findings set out here.

SMILES strings stand for the structures.

In general, IC50 refers to the concentration at which inhibition is half-maximal. A low value points to greater potency.

Sequence of Axl (P30530 26-894): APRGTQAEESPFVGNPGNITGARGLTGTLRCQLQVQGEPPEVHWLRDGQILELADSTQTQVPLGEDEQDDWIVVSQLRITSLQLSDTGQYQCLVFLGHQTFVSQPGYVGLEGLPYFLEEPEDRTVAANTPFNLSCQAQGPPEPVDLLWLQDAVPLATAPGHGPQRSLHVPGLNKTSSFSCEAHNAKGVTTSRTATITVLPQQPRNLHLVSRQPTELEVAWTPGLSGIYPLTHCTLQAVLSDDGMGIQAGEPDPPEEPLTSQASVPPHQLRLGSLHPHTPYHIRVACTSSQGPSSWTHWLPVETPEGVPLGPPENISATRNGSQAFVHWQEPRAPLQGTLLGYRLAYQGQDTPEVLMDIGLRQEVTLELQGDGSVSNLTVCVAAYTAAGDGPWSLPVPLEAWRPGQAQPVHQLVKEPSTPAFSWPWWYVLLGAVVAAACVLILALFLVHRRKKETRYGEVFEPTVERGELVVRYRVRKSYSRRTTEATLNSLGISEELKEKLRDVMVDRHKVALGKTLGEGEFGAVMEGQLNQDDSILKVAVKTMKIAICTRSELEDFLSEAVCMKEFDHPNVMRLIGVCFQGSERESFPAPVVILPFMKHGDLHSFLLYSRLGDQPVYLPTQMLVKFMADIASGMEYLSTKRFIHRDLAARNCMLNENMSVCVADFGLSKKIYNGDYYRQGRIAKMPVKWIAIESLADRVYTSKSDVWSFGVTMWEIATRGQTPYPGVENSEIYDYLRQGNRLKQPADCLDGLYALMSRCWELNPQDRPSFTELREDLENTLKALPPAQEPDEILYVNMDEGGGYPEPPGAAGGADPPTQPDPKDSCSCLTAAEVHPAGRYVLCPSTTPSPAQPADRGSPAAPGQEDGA

With `CN1CCN(Cc2cccc(-c3cnc4[nH]cc(-c5cc(CNCc6ccccc6)ccc5F)c4c3)c2)CC1` [Compound 2], on Axl, the “Percentage inhibition AXL” value is listed as 95% and the IC50 worked out at 2.36 nM. Besides, the “active on infectious model KUNV” value with WNV virus, Kunjin strain is given as “ACTIVE”.
Take `CN1CCN(Cc2cccc(-c3cnc4[nH]cc(-c5cc(CNCCc6ccc(O)cc6)ccc5F)c4c3)c2)CC1` [Compound 1]: the “infection of the primary bronchial epithelium by SARS-COV-2” value in the experiment with SARS-COV-2 was “inhibits the infection”. On Axl, the “Percentage inhibition AXL” value turned out to be 95% and the IC50 turned out to be 5.36 nM. The “active on infectious model KUNV” value in the experiment on WNV virus, Kunjin strain is reported as “ACTIVE”.
Consider `CN1CCN(Cc2cccc(-c3cnc4[nH]cc(-c5cc(NC(=O)Nc6ccccc6)ccc5F)c4c3)c2)CC1` [Compound 3], for which, on Axl, the “Percentage inhibition AXL” value turned out to be 94% and inhibition was half-maximal at 6.3 nM (IC50). Moreover, the “selectivity with respect to Axl relative to FLT3” value on Axl (from IC50 Axl and IC50 FLT3) is reported as “shows a selectivity with respect to Axl relative to FLT3”.
